Laboratory results as given in patent US20240294476A1, “CRYSTAL FORM OF QUINOLINE COMPOUND AND PROCESS FOR ITS PRODUCTION” (NISSAN CHEMICAL CORPORATION, priority 2003, published 2024).

Key:
[1] = Stability data of drug substance (influence of water content), storage at 40° C.; format: physicochemical
From the text: (§1) However, in the conventional method for producing pitavastatin calcium, there has been no disclosure relating to the water content or the crystal form.

[2] = Crystallinity by powder X-ray diffraction after drying; format: physicochemical; details: dried in a usual manner, water content at most 4%
From the text: as §1

[3] = 40° C. air tight, Initial stage

O=C(O)C[C@H](O)C[C@H](O)/C=C/c1c(C2CC2)nc2ccccc2c1-c1ccc(F)cc1 [Pitavastatin calcium, monocalcium bis[(3R,5S,6E)-7-(2-cyclopropyl-4-(4-fluorophenyl)-3-quinolyl)-3,5-dihydroxy-6-heptenoate]]
Analogous substance (%) ([1]; 40° C. air tight, 30 Days): 0.208%
Pitavastatin calcium (%) ([1]; 40° C. air tight, 30 Days): 99.42%
Water content (%) ([1]; 40° C. air tight, 30 Days): 7.85%
Analogous substance (%) ([1]; 40° C. air tight, 60 Days): 0.189%
Pitavastatin calcium (%) ([1]; 40° C. air tight, 60 Days): 99.79%
Water content (%) ([1]; 40° C. air tight, 60 Days): 7.88%
Analogous substance (%) ([1]; 40° C. air tight, 90 Days): 0.211%
Pitavastatin calcium (%) ([1]; 40° C. air tight, 90 Days): 99.64%
Water content (%) ([1]; 40° C. air tight, 90 Days): 7.81%
Analogous substance (%) [1, 3]: 0.179%
Pitavastatin calcium (%) [1, 3]: 99.38%
Water content (%) [1, 3]: 7.89%
Analogous substance (%) ([1]; 40° C. open air, 30 Days): 0.742%
Pitavastatin calcium (%) ([1]; 40° C. open air, 30 Days): 99.26%
Water content (%) ([1]; 40° C. open air, 30 Days): 2.45%
Analogous substance (%) ([1]; 40° C. open air, 60 Days): 1.347%
Pitavastatin calcium (%) ([1]; 40° C. open air, 60 Days): 97.19%
Water content (%) ([1]; 40° C. open air, 60 Days): 1.99%
Analogous substance (%) ([1]; 40° C. open air, 90 Days): 2.099%
Pitavastatin calcium (%) ([1]; 40° C. open air, 90 Days): 96.49%
Water content (%) ([1]; 40° C. open air, 90 Days): 1.77%
Analogous substance (%) ([1]; 40° C. open air, Initial stage): 0.179%
Pitavastatin calcium (%) ([1]; 40° C. open air, Initial stage): 99.38%
Water content (%) ([1]; 40° C. open air, Initial stage): 7.89%
stability during the storage ([1]; pitavastatin calcium which has become amorphous): very poor stability
crystallinity (powder X-ray diffraction) [2]: decrease to a state close to an amorphous state
